Measured values published in US6258547A, “Nucleic acid encoding amp-activated protein kinase” (Zeneca Limited, priority 1993, dated 2001).

Key:
[1] = test system: AMP-activated protein kinase (AMPK) partially purified from rat liver (DEAE-Sepharose fraction); assay type: biochemical; settings: 200 µM
[2] = biological target: T1, Saccharomyces cerevisiae SNF1 protein kinase, wild type (Saccharomyces cerevisiae, UniProt P06782+P12904); test: SAMS peptide phosphorylation assay in yeast extracts; assay type: biochemical; settings: over a range of AMP concentrations; data not shown
T1 construct: We were able to detect kinase activity using this assay in wild type yeast extracts; endogenous in cells; host or cells: wild type Saccharomyces cerevisiae extract
T1 sequence (P06782 1-633): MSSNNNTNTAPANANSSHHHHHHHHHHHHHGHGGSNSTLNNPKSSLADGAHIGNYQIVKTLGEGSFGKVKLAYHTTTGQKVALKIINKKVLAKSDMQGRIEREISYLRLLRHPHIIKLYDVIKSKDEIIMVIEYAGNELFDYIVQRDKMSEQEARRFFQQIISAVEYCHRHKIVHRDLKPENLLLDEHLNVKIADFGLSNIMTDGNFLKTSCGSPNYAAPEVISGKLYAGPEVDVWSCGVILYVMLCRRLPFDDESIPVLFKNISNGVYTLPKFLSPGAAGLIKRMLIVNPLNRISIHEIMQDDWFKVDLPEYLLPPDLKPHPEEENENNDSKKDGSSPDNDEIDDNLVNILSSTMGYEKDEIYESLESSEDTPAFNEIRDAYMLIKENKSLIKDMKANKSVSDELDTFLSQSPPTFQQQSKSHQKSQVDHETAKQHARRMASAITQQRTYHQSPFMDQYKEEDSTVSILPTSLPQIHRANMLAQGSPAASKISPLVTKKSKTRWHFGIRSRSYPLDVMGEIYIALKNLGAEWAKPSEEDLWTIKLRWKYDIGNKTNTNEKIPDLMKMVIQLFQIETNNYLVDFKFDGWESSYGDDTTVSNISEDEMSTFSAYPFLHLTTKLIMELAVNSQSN
T1 sequence (P12904 1-322): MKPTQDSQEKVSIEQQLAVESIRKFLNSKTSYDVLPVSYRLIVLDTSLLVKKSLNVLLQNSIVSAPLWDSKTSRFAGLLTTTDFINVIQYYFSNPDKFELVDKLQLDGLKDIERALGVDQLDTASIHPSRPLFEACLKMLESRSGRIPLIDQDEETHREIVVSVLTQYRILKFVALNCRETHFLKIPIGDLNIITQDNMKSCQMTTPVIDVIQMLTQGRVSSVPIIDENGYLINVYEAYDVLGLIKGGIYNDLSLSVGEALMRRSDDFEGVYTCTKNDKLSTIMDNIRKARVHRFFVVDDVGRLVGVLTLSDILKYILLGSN
Description: In Saccharomyces cerevisiae SNF1 protein kinase activity is essential for release of genes from glucose repression. […] The amino acid sequences of SNF1 and AMPK are 46% identical. We investigated whether SNF1 and AMPK shared any functional similarity in addition to their primary sequence homology. […] We believe that this polypeptide is likely to be involved in the regulation of mammalian AMPK in the same way that SNF4 regulates SNF1 function in yeast. […] The apparent Km of SAMS peptide for SNF1 (20 μM) was similar to that of the AMPK (data not shown).

[3] = test system: AMP-activated protein kinase (AMPK) purified from rat liver; settings: cited from earlier work

In the case of Nc1ncnc2c1ncn2[C@@H]1O[C@H](COP(=O)(O)O)[C@@H](O)[C@H]1O [AMP], the “stimulation of AMPK activity by AMP” value [1] is given as “approximately 3 fold”, the “activation of SNF1 by AMP” value [2] is given as “unable to detect any significant activation” and the “activation of AMPK by AMP” value [3] is given as “approximately 5 fold”.
